Laboratory results as given in the kinase profiling compilation of Christmann-Franck et al. (2016).
pKd: −log10 of the molar value.

Legend:
Assay in all cases: KINOMEscan competition binding
[1] = biological target: AURKA (human) (UniProt O14965)
[2] = biological target: KDR (human) (UniProt P35968)
[3] = biological target: EPHA2 (human) (UniProt P29317)
[4] = biological target: MAPK8 (human) (UniProt P45983)
[5] = biological target: PAK7 (human) (UniProt Q9P286)
[6] = biological target: FGR (human) (UniProt P09769)
[7] = biological target: CDK5 (human) (UniProt Q00535)
[8] = biological target: MAPK11 (human) (UniProt Q15759)
[9] = biological target: KIT (human) (UniProt P10721)
[10] = biological target: NTRK1 (human) (UniProt P04629)
[11] = biological target: PRKACA (human) (UniProt P17612)
[12] = biological target: FLT3 (human) (UniProt P36888)
[13] = biological target: MAP3K5 (human) (UniProt Q99683)
[14] = biological target: MKNK2 (human) (UniProt Q9HBH9)
[15] = biological target: RPS6KA5 KD1 (human) (UniProt O75582)
[16] = biological target: CAMKK1 (human) (UniProt Q8N5S9)
[17] = biological target: FGFR1 (human) (UniProt P11362)
[18] = biological target: MAPK12 (human) (UniProt P53778)
[19] = biological target: CAMK2B (human) (UniProt Q13554)
[20] = biological target: MAPK10 (human) (UniProt P53779)
[21] = biological target: RIPK2 (human) (UniProt O43353)
[22] = biological target: PTK6 (human) (UniProt Q13882)
[23] = biological target: PLK4 (human) (UniProt O00444)
[24] = biological target: CAMK2D (human) (UniProt Q13557)
[25] = biological target: DAPK2 (human) (UniProt Q9UIK4)
[26] = biological target: RPS6KA3 KD1 (human) (UniProt P51812)
[27] = biological target: CAMK2G (human) (UniProt Q13555)
[28] = biological target: NEK9 (human) (UniProt Q8TD19)
[29] = biological target: PDGFRB (human) (UniProt P09619)
[30] = biological target: EPHA7 (human) (UniProt Q15375)
[31] = biological target: PAK6 (human) (UniProt Q9NQU5)
[32] = biological target: PRKAA1 (human) (UniProt Q13131)
[33] = biological target: MAPK9 (human) (UniProt P45984)
[34] = biological target: FGFR3 (human) (UniProt P22607)
[35] = biological target: LIMK1 (human) (UniProt P53667)
[36] = biological target: FLT4 (human) (UniProt P35916)
[37] = biological target: CAMK2A (human) (UniProt Q9UQM7)
[38] = biological target: CAMK1 (human) (UniProt Q14012)
[39] = biological target: JAK1 JH1 catalytic (human) (UniProt P23458)
[40] = biological target: FGFR2 (human) (UniProt P21802)
[41] = biological target: CSNK1G1 (human) (UniProt Q9HCP0)
[42] = biological target: TTK (human) (UniProt P33981)
[43] = biological target: NEK6 (human) (UniProt Q9HC98)
[44] = biological target: MAPK14 (human) (UniProt Q16539)
[45] = biological target: PIM1 (human) (UniProt P11309)
[46] = biological target: AURKC (human) (UniProt Q9UQB9)
[47] = biological target: EPHA4 (human) (UniProt P54764)
[48] = biological target: CDK2 (human) (UniProt P24941)
[49] = biological target: STK16 (human) (UniProt O75716)
[50] = biological target: PIM2 (human) (UniProt Q9P1W9)
[51] = biological target: INSR (human) (UniProt P06213)
[52] = biological target: PAK4 (human) (UniProt O96013)

Measured: pKd

Chain of TTK (human) (P33981 whole entry, looked up): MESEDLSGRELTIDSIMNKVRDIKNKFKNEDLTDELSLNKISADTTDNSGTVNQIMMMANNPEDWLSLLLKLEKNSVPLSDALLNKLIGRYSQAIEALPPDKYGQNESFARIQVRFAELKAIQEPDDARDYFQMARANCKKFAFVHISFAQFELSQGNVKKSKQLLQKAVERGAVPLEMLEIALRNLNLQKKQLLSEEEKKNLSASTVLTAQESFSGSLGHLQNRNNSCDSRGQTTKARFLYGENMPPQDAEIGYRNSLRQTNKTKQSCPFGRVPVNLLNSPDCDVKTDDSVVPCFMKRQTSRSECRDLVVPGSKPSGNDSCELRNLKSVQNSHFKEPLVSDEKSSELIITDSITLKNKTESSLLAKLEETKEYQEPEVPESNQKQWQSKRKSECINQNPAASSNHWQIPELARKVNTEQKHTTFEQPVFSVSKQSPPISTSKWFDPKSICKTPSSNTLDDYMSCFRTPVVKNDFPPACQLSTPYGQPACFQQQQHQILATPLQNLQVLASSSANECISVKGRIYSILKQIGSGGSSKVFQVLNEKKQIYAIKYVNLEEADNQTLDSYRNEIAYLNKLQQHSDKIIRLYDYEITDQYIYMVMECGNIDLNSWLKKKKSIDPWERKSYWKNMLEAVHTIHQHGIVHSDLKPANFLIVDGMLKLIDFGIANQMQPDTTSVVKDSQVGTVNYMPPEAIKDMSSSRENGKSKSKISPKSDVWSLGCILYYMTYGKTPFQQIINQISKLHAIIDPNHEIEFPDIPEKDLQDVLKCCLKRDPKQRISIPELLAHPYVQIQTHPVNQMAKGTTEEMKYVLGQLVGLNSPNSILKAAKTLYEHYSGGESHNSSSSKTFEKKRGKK
Chain of KDR (human) (P35968 whole entry, looked up): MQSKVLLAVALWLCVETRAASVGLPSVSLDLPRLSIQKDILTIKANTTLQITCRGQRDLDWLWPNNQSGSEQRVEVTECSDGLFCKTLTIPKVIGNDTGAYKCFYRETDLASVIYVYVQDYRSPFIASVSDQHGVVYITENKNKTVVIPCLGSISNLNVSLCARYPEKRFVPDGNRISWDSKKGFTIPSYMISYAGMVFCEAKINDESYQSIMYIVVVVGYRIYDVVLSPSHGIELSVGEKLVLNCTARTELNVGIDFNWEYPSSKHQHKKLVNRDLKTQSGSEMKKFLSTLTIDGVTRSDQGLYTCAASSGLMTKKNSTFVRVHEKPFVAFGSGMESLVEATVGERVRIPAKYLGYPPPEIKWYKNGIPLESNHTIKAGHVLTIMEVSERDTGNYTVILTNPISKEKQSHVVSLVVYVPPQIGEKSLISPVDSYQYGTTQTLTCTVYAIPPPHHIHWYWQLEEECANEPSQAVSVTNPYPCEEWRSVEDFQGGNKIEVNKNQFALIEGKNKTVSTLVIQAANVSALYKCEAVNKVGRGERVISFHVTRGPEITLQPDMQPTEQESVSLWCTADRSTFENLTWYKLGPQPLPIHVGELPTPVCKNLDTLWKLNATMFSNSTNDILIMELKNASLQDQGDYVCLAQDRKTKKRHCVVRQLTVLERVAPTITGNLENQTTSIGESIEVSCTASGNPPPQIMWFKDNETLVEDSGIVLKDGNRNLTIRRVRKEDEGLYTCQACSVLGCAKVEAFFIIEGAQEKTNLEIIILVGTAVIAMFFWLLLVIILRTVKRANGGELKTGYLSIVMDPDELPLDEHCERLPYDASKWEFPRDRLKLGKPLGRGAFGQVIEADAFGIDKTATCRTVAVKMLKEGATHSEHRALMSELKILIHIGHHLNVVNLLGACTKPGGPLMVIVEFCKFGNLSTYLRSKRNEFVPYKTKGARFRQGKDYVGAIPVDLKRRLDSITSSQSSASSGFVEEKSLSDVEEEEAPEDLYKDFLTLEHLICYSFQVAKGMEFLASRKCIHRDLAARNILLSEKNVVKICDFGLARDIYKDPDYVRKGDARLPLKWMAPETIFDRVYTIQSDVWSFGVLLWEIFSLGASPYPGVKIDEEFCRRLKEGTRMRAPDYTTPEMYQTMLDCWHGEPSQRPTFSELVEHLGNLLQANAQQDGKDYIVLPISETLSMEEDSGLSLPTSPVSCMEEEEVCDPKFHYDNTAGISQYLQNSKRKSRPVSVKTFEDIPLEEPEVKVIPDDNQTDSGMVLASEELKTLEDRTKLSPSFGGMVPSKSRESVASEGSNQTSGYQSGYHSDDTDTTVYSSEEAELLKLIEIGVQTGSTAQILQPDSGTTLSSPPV
Chain of STK16 (human) (O75716 whole entry, looked up): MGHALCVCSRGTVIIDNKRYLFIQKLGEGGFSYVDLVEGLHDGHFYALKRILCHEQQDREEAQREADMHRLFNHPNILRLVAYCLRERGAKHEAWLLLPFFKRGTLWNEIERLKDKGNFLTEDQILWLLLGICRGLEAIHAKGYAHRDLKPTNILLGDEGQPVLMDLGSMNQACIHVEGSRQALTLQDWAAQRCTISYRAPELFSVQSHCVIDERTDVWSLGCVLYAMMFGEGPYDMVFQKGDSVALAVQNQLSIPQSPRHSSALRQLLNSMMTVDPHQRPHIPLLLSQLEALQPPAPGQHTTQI
Chain of FGFR1 (human) (P11362 whole entry, looked up): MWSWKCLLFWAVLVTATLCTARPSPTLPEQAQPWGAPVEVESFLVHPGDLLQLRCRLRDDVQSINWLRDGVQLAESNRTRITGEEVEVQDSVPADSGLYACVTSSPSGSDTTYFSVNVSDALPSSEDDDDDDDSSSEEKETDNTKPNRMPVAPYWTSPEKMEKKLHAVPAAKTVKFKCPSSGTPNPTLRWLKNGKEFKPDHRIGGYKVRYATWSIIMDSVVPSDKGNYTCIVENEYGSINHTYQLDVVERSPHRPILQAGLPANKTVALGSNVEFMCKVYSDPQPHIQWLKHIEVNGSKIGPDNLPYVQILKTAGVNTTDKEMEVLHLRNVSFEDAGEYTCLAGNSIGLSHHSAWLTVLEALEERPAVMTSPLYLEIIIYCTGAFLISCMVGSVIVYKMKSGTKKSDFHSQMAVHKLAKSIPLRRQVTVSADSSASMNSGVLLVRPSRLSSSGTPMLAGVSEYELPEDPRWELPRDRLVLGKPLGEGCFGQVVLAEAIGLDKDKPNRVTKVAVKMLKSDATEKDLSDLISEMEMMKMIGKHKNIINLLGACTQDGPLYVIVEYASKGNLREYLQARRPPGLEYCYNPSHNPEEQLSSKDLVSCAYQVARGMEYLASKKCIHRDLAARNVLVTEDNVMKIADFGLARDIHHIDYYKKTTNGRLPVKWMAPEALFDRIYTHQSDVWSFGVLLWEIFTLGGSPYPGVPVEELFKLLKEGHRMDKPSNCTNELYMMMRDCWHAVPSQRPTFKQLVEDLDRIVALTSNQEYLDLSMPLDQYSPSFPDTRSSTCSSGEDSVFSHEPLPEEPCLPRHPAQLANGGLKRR
Chain of AURKA (human) (O14965 whole entry, looked up): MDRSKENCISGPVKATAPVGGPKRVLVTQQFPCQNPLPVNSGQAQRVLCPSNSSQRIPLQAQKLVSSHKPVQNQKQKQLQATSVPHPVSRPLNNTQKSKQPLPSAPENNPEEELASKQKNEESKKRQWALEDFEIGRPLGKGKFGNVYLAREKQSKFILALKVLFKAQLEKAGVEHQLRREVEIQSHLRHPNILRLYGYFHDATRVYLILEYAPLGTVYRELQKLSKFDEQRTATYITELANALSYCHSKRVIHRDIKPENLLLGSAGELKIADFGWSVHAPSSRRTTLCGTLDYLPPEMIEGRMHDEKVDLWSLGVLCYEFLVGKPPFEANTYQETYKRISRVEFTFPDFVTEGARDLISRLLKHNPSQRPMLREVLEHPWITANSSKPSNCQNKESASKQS
Chain of FGFR3 (human) (P22607 whole entry, looked up): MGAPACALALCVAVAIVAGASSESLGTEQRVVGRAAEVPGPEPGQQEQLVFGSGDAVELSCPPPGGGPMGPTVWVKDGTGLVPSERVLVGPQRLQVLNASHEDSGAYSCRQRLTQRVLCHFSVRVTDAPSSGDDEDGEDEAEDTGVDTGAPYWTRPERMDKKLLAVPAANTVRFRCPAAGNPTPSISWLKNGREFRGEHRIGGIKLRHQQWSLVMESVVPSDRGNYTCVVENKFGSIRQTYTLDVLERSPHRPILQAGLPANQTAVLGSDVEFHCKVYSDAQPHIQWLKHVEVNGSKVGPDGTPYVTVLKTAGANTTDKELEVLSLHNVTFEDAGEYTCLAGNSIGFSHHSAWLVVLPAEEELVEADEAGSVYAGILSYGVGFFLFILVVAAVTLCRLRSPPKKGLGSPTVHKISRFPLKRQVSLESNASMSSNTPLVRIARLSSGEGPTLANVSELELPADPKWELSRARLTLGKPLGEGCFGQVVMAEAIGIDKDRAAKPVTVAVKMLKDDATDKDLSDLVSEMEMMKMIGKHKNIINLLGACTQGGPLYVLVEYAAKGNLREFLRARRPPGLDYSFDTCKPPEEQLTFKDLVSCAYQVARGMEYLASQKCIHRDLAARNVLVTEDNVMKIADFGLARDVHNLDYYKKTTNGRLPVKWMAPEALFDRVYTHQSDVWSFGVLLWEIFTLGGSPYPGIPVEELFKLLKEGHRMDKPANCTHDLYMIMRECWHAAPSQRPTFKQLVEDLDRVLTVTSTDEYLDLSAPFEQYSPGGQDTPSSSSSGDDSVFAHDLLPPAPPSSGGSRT
Chain of NEK6 (human) (Q9HC98 whole entry, looked up): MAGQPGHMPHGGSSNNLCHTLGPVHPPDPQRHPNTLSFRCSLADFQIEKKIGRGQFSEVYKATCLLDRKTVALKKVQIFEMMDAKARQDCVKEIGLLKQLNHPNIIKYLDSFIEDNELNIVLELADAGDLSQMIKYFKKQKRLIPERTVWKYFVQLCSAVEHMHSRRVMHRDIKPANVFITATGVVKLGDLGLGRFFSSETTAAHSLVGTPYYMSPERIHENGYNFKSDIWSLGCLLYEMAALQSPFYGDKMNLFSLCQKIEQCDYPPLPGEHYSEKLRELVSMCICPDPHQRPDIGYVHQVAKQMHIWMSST

CCOc1cc2ncc(C#N)c(Nc3ccc(F)c(Cl)c3)c2cc1NC(=O)/C=C/CN(C)C
< 5.00: all assays above

CS(=O)c1ccc(-c2nc(-c3ccc(F)cc3)c(-c3ccncc3)[nH]2)cc1 (stereo not drawn)
< 5.00: [42]
